Measurements taken from publication PMC6474902, “Examination of novel 4-aminoquinoline derivatives designed and synthesized by a hybrid pharmacophore approach to enhance their anticancer activities” (Scientific Reports, 2019).
Entries after “also recorded” stand apart in the source; their conditions may differ. Read-outs that look alike come from different tables or passages of the source.

How the values were obtained:
184B5 = test: SRB antiproliferative/antigrowth assay, non-cancer cells; assay type: cell-based, human; settings: read-out: GI50 184B5
Description: (§1) The antigrowth effects of 4-piperazinylquinoline sulfonyl analogs on human breast tumor cells was initially evaluated using MDA-MB468 (a PTEN defective, EGFR positive breast adenocarcioma), MDA-MB231 (p53 and pRB mutated, triple-negative breast carcinoma), and MCF7 (p53+/−, invasive ductal breast carcinoma) cell lines. In addition, the cytotoxicity of all the compounds was also evaluated with the 184B5 and MCF10A non-cancer immortalized breast epithelial cell lines, to determine if these newly synthesized compounds have differential cytotoxic effects on cancer and non-cancer cells. The panel of three breast cancer cell lines with different genetic back ground and the well-studied two non-cancer immortalized breast cell lines would provide insights into the efficacy and toxicity of the test compounds in the different genetic background and at different stages of tumor development. The dose response of each cell line was established by determining the number of viable cells after 48 h of continuous drug treatment against seven different concentrations (100 µM to 0.0064 µM) of each compound. The reading of sulphorodamine B (SRB) staining is known to accurately reflect the level of total cellular macromolecules/cell growth/proliferation[6],[23]. […] The data for CQ and cisplatin were included as references. […] The differences in the GI50 values may be attributable to such factors as the nature of the sulfonyl group and the halogen substitution on the 7th position of the 4-piperazinylquinoline ring system, and the genetic and biochemical background of the cell lines.
(§2) Antiproliferative/antigrowth effects were determined by a SRB-based protocol[6],[23]. For a typical screening experiment, 5,000–10,000 cells were inoculated into 100 µL medium per well of a 96-well microtiter plate as described previously. Briefly, after the inoculation, the microtiter plate was incubated at 37 °C, 5% CO2, 95% air and 100% relative humidity for 24 h, prior to addition of experimental drugs. Some of the sample wells were fixed with 25 µL of 50% tricholoroacetic acid (TCA) as a control of the cell population for each cell line at the time of drug addition (Tz). An aliquot of the frozen stock was thawed and diluted to a desired final maximum test-concentration with complete medium. Two to ten-fold serial dilutions were made to provide a total of seven drug concentrations (and a control [C]). Following addition of drugs, the culture plate was incubated for additional 48 h. Cells were fixed in situ by slowly adding 25 µL of ice-cold 50% (w/v) TCA (final concentration, 10% TCA), and were then incubated for 60 min at 4 °C. The supernatant was discarded, and the plate was washed five times with tap water, followed by air-dry. 50 µL of SRB solution at 0.4% (w/v) in 1% acetic acid was added to each well, and the plate was incubated for >30 min at room temperature. Unbound SRB was removed by five washes with tap water, followed by air-drying. The cells “stained” with SRB were solubilized with 10 mM trizma base, and the absorbance was read on an automated plate reader at a wavelength of 515–564 nm. The relative growth rate (%) was calculated for each of the compound concentrations according to the following formula: (Ti−Tz)/(C−Tz)×100
(§3) In the formula, time zero (Tz), control growth (C), and OD for different concentration of tested compounds (Ti). The GI50 for each compound was obtained from a non-linear Sigmoidal dose-response (variable slope) curve which is fitted by GraphPad Prism v.4.03 software. Values were calculated for each of these parameters if the level of activity was reached. However, if the effect was not reached or was exceeded, the value for that parameter was expressed as greater or less than the maximum or minimum concentration tested.

MCF10A = test: as above; assay type: cell-based, human; settings: SRB, 48 h post-treatment, non-cancer breast epithelial cells, read-out: GI50 MCF10A
Description: as §1, §2, §3

MCF7 = test: SRB antiproliferative/antigrowth assay; assay type: cell-based, human; settings: SRB, 48 h post-treatment, mean of triplicates of at least two experiments, read-out: GI50 MCF7
Description: as §1, §2, §3

MDA-MB468 = test: SRB antiproliferative/antigrowth assay; assay type: cell-based, human; settings: SRB, 48 h post-treatment, mean of triplicates of at least two experiments, read-out: GI50 MB468
Description: as §1, §2, §3

MDA-MB231 = test: SRB antiproliferative/antigrowth assay; assay type: cell-based, human; settings: for GI50: SRB, 48 h post-treatment, mean of triplicates of at least two experiments, read-out: GI50 MB231
Description: as §1, §2, §3

[1] = tested on: MDA-MB231, MDA-MB468, MCF7 breast cancer cells; 184B5 and MCF10A non-cancer breast cells; test: SRB assay, panel of breast cancer and non-cancer breast cell lines; assay type: cell-based, human; settings: judged from GI50 values of Table 1
Description: as §1, §2, §3

[2] = Homo sapiens, 184B5, 48 h, SRB, 48 h post-treatment, non-cancer breast epithelial cells

Compound	GI50 (184B5; [2]) [µM]	GI50 (MCF10A; Homo sapiens, MCF-10A, 48 h) [µM]	GI50 (MCF7; Homo sapiens, MCF7, 48 h) [µM]	GI50 (MDA-MB468; Homo sapiens, MDA-MB-468, 48 h) [µM]	GI50 (MDA-MB231; Homo sapiens, MDA-MB-231, 48 h) [µM]	melting point [°C]	preferential antigrowth effect on cancer versus non-cancer cells (in words) [1]	further results
COC(=O)c1sccc1S(=O)(=O)NCCCNc1ccnc2cc(C(F)(F)F)ccc12 [Compound 42, 3-[3-(7-Trifluoromethyl-quinolin-4-ylamino)-propylsulfamoyl]-thiophene-2-carboxylic acid methyl ester]	12.1 ± 0.5	14.4 ± 0.8	4.3 ± 0.2	4.6 ± 0.2	7.5 ± 0.6	137 to 139	effective and preferential antigrowth effects on cancer cells; also recorded: stronger antigrowth/antiproliferation activity against cancer cells than non-cancer cells	
O=[N+]([O-])c1cccc(S(=O)(=O)N2CCN(c3ccnc4cc(C(F)(F)F)ccc34)CC2)c1 [Compound 21, 4-[4-(3-Nitro-benzenesulfonyl)-piperazin-1-yl]-7-trifluoromethyl-quinoline]	17.7 ± 0.2	15.4 ± 0.1	9.4 ± 0.3	18.6 ± 0.6	32.2 ± 0.6	199 to 201	effective and preferential antigrowth effects on cancer cells; also recorded: stronger antigrowth/antiproliferation activity against cancer cells than non-cancer cells	
Cc1ccc(S(=O)(=O)NCCCNc2ccnc3cc(C(F)(F)F)ccc23)cc1 [Compound 35, 4-Methyl-N-[3-(7-trifluoromethyl-quinolin-4-ylamino)-propyl]-benzenesulfonamide]	12.2 ± 0.9	10.9 ± 0.9	6.9 ± 0.5	6.2 ± 0.4	6.4 ± 0.5	77 to 79	effective and preferential antigrowth effects on cancer cells; also recorded: stronger antigrowth/antiproliferation activity against cancer cells than non-cancer cells	
Cc1ccc(S(=O)(=O)N2CCN(c3ccnc4cc(Cl)ccc34)CC2)cc1 [Compound 8, 7-Chloro-4-(4-tosylpiperazin-1-yl)quinoline]	47.5 ± 0.9	44.4 ± 0.7	16.1 ± 0.6	28.8 ± 0.7	34.1 ± 0.7	190 to 192	effective and preferential antigrowth effects on cancer cells; also recorded: stronger antigrowth/antiproliferation activity against cancer cells than non-cancer cells	
N.N.[Cl][Pt][Cl] [Cisplatin, reference compound]							similar	GI50 (184B5; SRB, 48 h post-treatment, non-cancer breast epithelial cells): 25.5 ± 0.4 µM; GI50 (MCF10A): 51.5 ± 0.9 µM; GI50 (MCF7): 25.8 ± 0.4 µM; GI50 (MDA-MB468): 31 ± 0.5 µM; GI50 (MDA-MB231): 23.7 ± 0.2 µM
O=S(=O)(c1ccc(Cl)cc1Cl)N1CCN(c2ccnc3cc(Cl)ccc23)CC1 [Compound 11, 7-Chloro-4-(4-(2,4-dichlorophenylsulfonyl)piperazin-1-yl)quinoline]	12.4 ± 0.1	8.9 ± 0.2	13.5 ± 0.2	21.6 ± 0.6	40.6 ± 0.8	145 to 147		
CS(=O)(=O)NCCCNc1ccnc2cc(C(F)(F)F)ccc12 [Compound 34, N-[3-(7-Trifluoromethyl-quinolin-4-ylamino)-propyl]-methanesulfonamide]	59.5 ± 1.6	85 ± 1.2	25.3 ± 1.3	30.4 ± 1	55.9 ± 1.6	171 to 173		
Cc1ccc(S(=O)(=O)NCCCNc2ccnc3cc(Cl)ccc23)cc1 [Compound 26, N-[3-(7-Chloro-quinolin-4-ylamino)-propyl]-4-methyl-benzenesulfonamide]	9.6 ± 0.5	12.2 ± 0.6	5.2 ± 0.5	5.8 ± 0.4	6.2 ± 0.5		effective and preferential antigrowth effects on cancer cells; also recorded: stronger antigrowth/antiproliferation activity against cancer cells than non-cancer cells	
Cc1ccc(S(=O)(=O)N2CCN(c3ccnc4cc(C(F)(F)F)ccc34)CC2)cc1 [Compound 17, 4-[4-(Toluene-4-sulfonyl)-piperazin-1-yl]-7-trifluoromethyl-quinoline]	12.9 ± 0.1	10.5 ± 0.1	20.8 ± 0.2	36.5 ± 0.8	42.7 ± 0.8	126 to 128		
O=S(=O)(c1ccc(Cl)cc1Cl)N1CCN(c2ccnc3cc(C(F)(F)F)ccc23)CC1 [Compound 20, 4-[4-(2,4-Dichloro-benzenesulfonyl)-piperazin-1-yl]-7-trifluoromethyl-quinoline]	20.4 ± 0.2	15.6 ± 0.2	16.7 ± 0.2	18.6 ± 0.5	20.3 ± 0.5	137 to 139		increase in antigrowth activity on MDA-MB231 in comparison to methyl substituted compound 16 (MDA-MB231): 2 fold
O=[N+]([O-])c1ccc(S(=O)(=O)NCCCNc2ccnc3cc(Cl)ccc23)c([N+](=O)[O-])c1 [Compound 31, N-[3-(7-Chloro-quinolin-4-ylamino)-propyl]-2,4-dinitro-benzenesulfonamide]						238 to 240		GI50 (184B5; Homo sapiens, 184B5, 48 h): 9.1 ± 0.6 µM; GI50 (MCF10A; Homo sapiens, MCF-10A): 19.8 ± 0.9 µM; GI50 (MCF7; Homo sapiens, MCF7): 6.2 ± 0.3 µM; GI50 (MDA-MB468; Homo sapiens, MDA-MB-468): 7.4 ± 0.2 µM; increase in antigrowth activity against MDA-MB231 compared to mono nitro substituted compounds (30 and 39) (MDA-MB231): 1.7–2.3 fold; GI50 (MDA-MB231; Homo sapiens, MDA-MB-231): 8.9 ± 0.7 µM
O=S(=O)(NCCCNc1ccnc2cc(C(F)(F)F)ccc12)c1ccc(Cl)cc1Cl [Compound 38, 2,4-Dichloro-N-[3-(7-trifluoromethyl-quinolin-4-ylamino)-propyl]-benzenesulfonamide]	3.2 ± 0.1	5.3 ± 0.3	5.2 ± 0.3	3.9 ± 0.1	7 ± 0.6	117 to 119		
O=S(=O)(c1ccc(Cl)cc1)N1CCN(c2ccnc3cc(C(F)(F)F)ccc23)CC1 [Compound 19, 4-[4-(4-Chloro-benzenesulfonyl)-piperazin-1-yl]-7-trifluoromethyl-quinoline]	21.8 ± 0.3	13.6 ± 0.2	27.4 ± 0.3	34.9 ± 0.8	41.4 ± 0.8	144 to 146		
